Experimental data: PubChem BioAssay AID1963964 (Molecular Pharmacology Branch, DTP, NCI, 2024)

Test system: 997726-040-R-J2-PDC tumor spheroids, viability
Assay: Anticancer human tumor 997726-040-R-J2-PDC patient-derived squamous cell lung carcinoma cell line growth inhibition [PI3K]
Conditions: spheroids with HUVEC and MSC; for IC50: curve of first compound; for viability, T/C: stronger effect = lower value
Method in brief: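 Spheroid viability read-out. Co-cultures contained the tumor line plus HUVEC and human MSCs. Each agent was paired with a PI3K inhibitor (inavolisib, alpelisib, duvelisib, copanlisib) across half-log dilutions starting at clinical Cmax, or at 10 microM when Cmax was unknown.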

[1] = second compound 0.0316 µM, first compound 0.0316 µM
[2] = second compound 0.0316 µM, first compound 0.1 µM
[3] = second compound 0.0316 µM, first compound 0.316 µM
[4] = second compound 0.0316 µM, first compound 1 µM
[5] = second compound 0.0316 µM, first compound 3.16 µM
[6] = second compound 0.0316 µM, first compound 10 µM
[7] = second compound 0.1 µM, first compound 0.0316 µM
[8] = second compound 0.1 µM, first compound 0.1 µM
[9] = second compound 0.1 µM, first compound 0.316 µM
[10] = second compound 0.1 µM, first compound 1 µM
[11] = second compound 0.1 µM, first compound 3.16 µM
[12] = second compound 0.1 µM, first compound 10 µM
[13] = second compound 0.316 µM, first compound 0.0316 µM
[14] = second compound 0.316 µM, first compound 0.1 µM
[15] = second compound 0.316 µM, first compound 0.316 µM
[16] = second compound 0.316 µM, first compound 1 µM
[17] = second compound 0.316 µM, first compound 3.16 µM
[18] = second compound 0.316 µM, first compound 10 µM
[19] = second compound 1 µM, first compound 0.0316 µM
[20] = second compound 1 µM, first compound 0.1 µM
[21] = second compound 1 µM, first compound 0.316 µM
[22] = second compound 1 µM, first compound 1 µM
[23] = second compound 1 µM, first compound 3.16 µM
[24] = second compound 1 µM, first compound 10 µM
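Further: spheroids exposed to compounds for seven days before readout.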

## CC(C)NCC(C(=O)N1CCN(c2ncnc3c2C(C)CC3O)CC1)c1ccc(Cl)cc1 (centres undefined) + CC(Nc1ccc2c(c1)OCCn1cc(N3C(=O)OCC3C(F)F)nc1-2)C(N)=O
Second compound 0.00316 µM
  IC50: 269 nM
Second compound 0.01 µM
  IC50: 233 nM
Second compound 0.0316 µM
  IC50: 149 nM
Second compound 0.1 µM
  IC50: 35.8 nM
Second compound 0.316 µM
  IC50: < 31.6 nM
Second compound 1 µM
  IC50: < 31.6 nM
Second compound 0.00316 µM, first compound 0.0316 µM
  viability, T/C: 77.7%
Second compound 0.00316 µM, first compound 0.1 µM
  viability, T/C: 68.9%
Second compound 0.00316 µM, first compound 0.316 µM
  viability, T/C: 45.2%
Second compound 0.00316 µM, first compound 1 µM
  viability, T/C: 27.8%
Second compound 0.00316 µM, first compound 3.16 µM
  viability, T/C: 10.2%
Second compound 0.00316 µM, first compound 10 µM
  viability, T/C: 9.8%
Second compound 0.01 µM, first compound 0.0316 µM
  viability, T/C: 71.5%
Second compound 0.01 µM, first compound 0.1 µM
  viability, T/C: 65.8%
Second compound 0.01 µM, first compound 0.316 µM
  viability, T/C: 41.3%
Second compound 0.01 µM, first compound 1 µM
  viability, T/C: 30.3%
Second compound 0.01 µM, first compound 3.16 µM
  viability, T/C: 10.5%
Second compound 0.01 µM, first compound 10 µM
  viability, T/C: 7.89%
[1]
  viability, T/C: 53.3%
[2]
  viability, T/C: 57.7%
[3]
  viability, T/C: 41.3%
[4]
  viability, T/C: 26.6%
[5]
  viability, T/C: 12.4%
[6]
  viability, T/C: 8.75%
[7]
  viability, T/C: 52.1%
[8]
  viability, T/C: 37.7%
[9]
  viability, T/C: 31.4%
[10]
  viability, T/C: 22.4%
[11]
  viability, T/C: 11.2%
[12]
  viability, T/C: 6.81%
[13]
  viability, T/C: 34.7%
[14]
  viability, T/C: 28.8%
[15]
  viability, T/C: 24.6%
[16]
  viability, T/C: 20.6%
[17]
  viability, T/C: 10.6%
[18]
  viability, T/C: 5.02%
[19]
  viability, T/C: 26.2%
[20]
  viability, T/C: 23.6%
[21]
  viability, T/C: 23.4%
[22]
  viability, T/C: 16.5%
[23]
  viability, T/C: 8.21%
[24]
  viability, T/C: 5.34%

## CCCS(=O)(=O)Nc1ccc(F)c(C(=O)c2c[nH]c3ncc(-c4ccc(Cl)cc4)cc23)c1F + Cc1nc(NC(=O)N2CCCC2C(N)=O)sc1-c1ccnc(C(C)(C)C(F)(F)F)c1
Second compound 0.0316 µM
  IC50: 6890 nM
Second compound 0.1 µM
  IC50: 6000 nM
Second compound 0.316 µM
  IC50: 4660 nM
Second compound 1 µM
  IC50: 31.6 nM
Second compound 3.16 µM
  IC50: < 31.6 nM
Second compound 10 µM
  IC50: < 31.6 nM
[1]
  viability, T/C: 88.6%
[2]
  viability, T/C: 93.5%
[3]
  viability, T/C: 103%
[4]
  viability, T/C: 122%
[5]
  viability, T/C: 103%
[6]
  viability, T/C: 25%
[7]
  viability, T/C: 76.4%
[8]
  viability, T/C: 80.5%
[9]
  viability, T/C: 80.5%
[10]
  viability, T/C: 95.7%
[11]
  viability, T/C: 88.4%
[12]
  viability, T/C: 22.6%
[13]
  viability, T/C: 55.6%
[14]
  viability, T/C: 62.3%
[15]
  viability, T/C: 69.8%
[16]
  viability, T/C: 63.7%
[17]
  viability, T/C: 66.9%
[18]
  viability, T/C: 23.3%
[19]
  viability, T/C: 41.9%
[20]
  viability, T/C: 40.5%
[21]
  viability, T/C: 48.3%
[22]
  viability, T/C: 57.1%
[23]
  viability, T/C: 52%
[24]
  viability, T/C: 18.1%
Second compound 3.16 µM, first compound 0.0316 µM
  viability, T/C: 29.2%
Second compound 3.16 µM, first compound 0.1 µM
  viability, T/C: 31.4%
Second compound 3.16 µM, first compound 0.316 µM
  viability, T/C: 31.7%
Second compound 3.16 µM, first compound 1 µM
  viability, T/C: 34.7%
Second compound 3.16 µM, first compound 3.16 µM
  viability, T/C: 31.1%
Second compound 3.16 µM, first compound 10 µM
  viability, T/C: 17.9%
Second compound 10 µM, first compound 0.0316 µM
  viability, T/C: 16.4%
Second compound 10 µM, first compound 0.1 µM
  viability, T/C: 16.9%
Second compound 10 µM, first compound 0.316 µM
  viability, T/C: 13.8%
Second compound 10 µM, first compound 1 µM
  viability, T/C: 17.1%
Second compound 10 µM, first compound 3.16 µM
  viability, T/C: 11.9%
Second compound 10 µM, first compound 10 µM
  viability, T/C: 7.69%
